Experimental data taken from patent US11046680B1, “Heteroaryl-substituted triazoles as APJ receptor agonists” (priority 2016, dated 2021).
pEC50: −log10 of the molar value.

Molecular target: human APJ receptor (Homo sapiens (Human), UniProt P35414)
Experiment: biochemical
Type: biochemical
Conditions: [35S]GTPγS binding, CHO membranes expressing human APJ receptor; read-out: Activity hAPJ SPA EC50 IP
Method in brief: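 Membranes of a stable CHO line carrying human APJ (pFLAG-CMV-3) were used in a GTPγS binding format; buffer GDP, MgCl2 and NaCl were optimized, and plates were read after 90 min at RT.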

human APJ receptor, sequence (P35414 whole entry): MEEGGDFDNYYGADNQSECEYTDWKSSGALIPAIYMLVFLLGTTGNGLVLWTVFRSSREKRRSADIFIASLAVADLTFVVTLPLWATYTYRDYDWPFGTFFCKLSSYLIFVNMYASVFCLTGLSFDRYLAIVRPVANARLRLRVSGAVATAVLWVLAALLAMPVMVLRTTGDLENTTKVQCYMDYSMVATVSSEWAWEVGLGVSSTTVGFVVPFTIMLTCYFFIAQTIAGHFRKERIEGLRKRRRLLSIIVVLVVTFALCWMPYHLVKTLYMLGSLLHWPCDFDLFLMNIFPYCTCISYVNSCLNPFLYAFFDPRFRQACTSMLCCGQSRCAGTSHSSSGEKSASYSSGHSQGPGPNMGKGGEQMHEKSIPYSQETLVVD

| Molecule | pEC50 |
| --- | --- |
| COc1cccc(OC)c1-n1c(NS(=O)(=O)CCC(=O)N2CCCC2)nnc1-c1cccs1 [Example 361.0, N-(4-(2,6-Dimethoxyphenyl)-5-(thiophen-2-yl)-4H-1,2,4-triazol-3-yl)-3-oxo-3-(pyrrolidin-1-yl)propane-1-sulfonamide] | 7.47 |
| O=S(=O)(Cc1ccc(Cl)cc1)Nc1nnc(-c2cccs2)n1-c1ccccc1C(F)(F)F [Example 356.0, 1-(4-Chlorophenyl)-N-(5-(thiophen-2-yl)-4-(2-(trifluoromethyl)phenyl)-4H-1,2,4-triazol-3-yl)methanesulfonamide] | < 4.90 |
| COc1ccc(Br)cc1-n1c(NS(=O)(=O)CCc2ccc(Cl)cc2)nnc1-c1cccs1 [Example 133.0, N-(4-(5-Bromo-2-methoxyphenyl)-5-(thiophen-2-yl)-4H-1,2,4-triazol-3-yl)-2-(4-chlorophenyl)ethanesulfonamide] | 6.44 |
| COc1ncnc(OC)c1-n1c(NS(=O)(=O)[C@@H](C)[C@H](C)c2ncc(Cl)cn2)nnc1-c1n[nH]c2ccccc12 [Example 426.0, (2S,3R)-3-(5-chloropyrimidin-2-yl)-N-(4-(4,6-dimethoxypyrimidin-5-yl)-5-(1H-indazol-3-yl)-4H-1,2,4-triazol-3-yl)butane-2-sulfonamide] | 7.85 |
| COc1cccc(OC)c1-n1c(NS(=O)(=O)[C@H](C)Cc2ncc(F)cn2)nnc1-c1nc(C)cs1 [Example 100.0] | 8.52 |
| COc1ncnc(OC)c1-n1c(NS(=O)(=O)[C@@H](C)[C@H](OC)c2ncc(Cl)cn2)nnc1-c1ccn(C)n1 [Example 450.0, (1R,2S)-1-(5-chloro-2-pyrimidinyl)-N-(4-(4,6-dimethoxy-5-pyrimidinyl)-5-(1-methyl-1H-pyrazol-3-yl)-4H-1,2,4-triazol-3-yl)-1-methoxy-2-propanesulfonamide] | 9.09 |
| COc1cccc(OC)c1-n1c(NS(=O)(=O)[C@@H](C)[C@H](OC)c2ncc(Cl)cn2)nnc1-c1c[nH]cn1 [Example 523.0, (1R,2S)-1-(5-chloropyrimidin-2-yl)-N-(4-(2,6-dimethoxyphenyl)-5-(1H-imidazol-4-yl)-4H-1,2,4-triazol-3-yl)-1-methoxypropane-2-sulfonamide] | 8.49 |
| COc1cccc(OC)c1-n1c(NS(=O)(=O)[C@H](C)[C@H](O)c2ncc(C)cn2)nnc1-c1nc(C)cs1 (single isomer, unassigned) [Example 315.0, (1R,2R)-N-(4-(2,6-dimethoxyphenyl)-5-(4-methylthiazol-2-yl)-4H-1,2,4-triazol-3-yl)-1-hydroxy-1-(5-methylpyrimidin-2-yl)propane-2-sulfonamide or (1S,2S)-N-(4-(2,6-dimethoxyphenyl)-5-(4-methylthiazol-2-yl)-4H-1,2,4-triazol-3-yl)-1-hydroxy-1-(5-methylpyrimidin-2-yl)propane-2-sulfonamide] | 9.17 |
| COc1cccc(OC)c1-n1c(NS(=O)(=O)[C@@H](C)[C@H](OC)c2ncc(F)cn2)nnc1-c1cc(C)[nH]n1 [Example 345.0, (1R,2S)-N-(4-(2,6-dimethoxyphenyl)-5-(5-methyl-1H-pyrazol-3-yl)-4H-1,2,4-triazol-3-yl)-1-(5-fluoro-2-pyrimidinyl)-1-methoxy-2-propanesulfonamide] | 8.09 |
| COc1ncnc(OC)c1-n1c(NS(=O)(=O)[C@@H](C)[C@H](OC)c2ncc(Cl)cn2)nnc1-c1cnn2ccccc12 [Example 439.0, (1R,2S)-1-(5-chloropyrimidin-2-yl)-N-(4-(4,6-dimethoxypyrimidin-5-yl)-5-(pyrazolo[1,5-a]pyridin-3-yl)-4H-1,2,4-triazol-3-yl)-1-methoxypropane-2-sulfonamide] | 9.09 |
| COCC1(n2c(NS(=O)(=O)[C@@H](C)[C@H](OC)c3ncc(Cl)cn3)nnc2-c2n[nH]c3ccccc23)CC1 [Example 495.0, (1R,2S)-1-(5-chloro-2-pyrimidinyl)-N-(5-(1H-indazol-3-yl)-4-(1-(methoxymethyl)cyclopropyl)-4H-1,2,4-triazol-3-yl)-1-methoxy-2-propanesulfonamide] | 7.89 |
| COc1cccc(OC)c1-n1c(NS(=O)(=O)[C@@H](C)[C@H](OC)c2ncc(C)cn2)nnc1-c1coc(C)n1 [Example 339.0, (1R,2S)-N-(4-(2,6-dimethoxyphenyl)-5-(2-methyl-1,3-oxazol-4-yl)-4H-1,2,4-triazol-3-yl)-1-methoxy-1-(5-methyl-2-pyrimidinyl)-2-propanesulfonamide] | 8.68 |
| (R)-N-(4-(2,6-dimethoxyphenyl)-5-(1H-pyrazol-3-yl)-4H-1,2,4-triazol-3-yl)-1-(5-fluoropyrimidin-2-yl)propane-2-sulfonamide and (S)-N-(4-(2,6-dimethoxyphenyl)-5-(1H-pyrazol-3-yl)-4H-1,2,4-triazol-3-yl)-1-(5-fluoropyrimidin-2-yl)propane-2-sulfonamide [Example 71.0] | 7.39 |
| COc1cncc(-c2nnc(NS(=O)(=O)[C@@H](C)[C@H](OC)c3ncc(C)cn3)n2-c2c(OC)cccc2OC)n1 [Example 343.0, (1R,2S)-N-(4-(2,6-dimethoxyphenyl)-5-(6-methoxy-2-pyrazinyl)-4H-1,2,4-triazol-3-yl)-1-methoxy-1-(5-methyl-2-pyrimidinyl)-2-propanesulfonamide] | 8.59 |
| COc1ccc([C@@H](C)[C@H](C)S(=O)(=O)Nc2nnc(-c3ccn(C)n3)n2-c2c(OC)ncnc2OC)nc1 [Example 458.0, (2S,3R)-N-(4-(4,6-dimethoxy-5-pyrimidinyl)-5-(1-methyl-1H-pyrazol-3-yl)-4H-1,2,4-triazol-3-yl)-3-(5-methoxy-2-pyridinyl)-2-butanesulfonamide] | 8.55 |
| COCC1(n2c(NS(=O)(=O)[C@@H](C)[C@@H](OC(C)C)c3ncc(C)cn3)nnc2-c2ccn(C)n2)CC1 [Example 462.0, (1S,2S)-N-(4-(1-(methoxymethyl)cyclopropyl)-5-(1-methyl-1H-pyrazol-3-yl)-4H-1,2,4-triazol-3-yl)-1-(5-methyl-2-pyrimidinyl)-1-(2-propanyloxy)-2-propanesulfonamide] | 8.39 |
| (2S)-N-(4-(2,6-dimethoxyphenyl)-5-(2-pyrazinyl)-4H-1,2,4-triazol-3-yl)-1-(5-fluoro-2-pyrimidinyl)-2-propanesulfonamide and (2R)-N-(4-(2,6-dimethoxyphenyl)-5-(2-pyrazinyl)-4H-1,2,4-triazol-3-yl)-1-(5-fluoro-2-pyrimidinyl)-2-propanesulfonamide [Example 182.0] | 7.08 |
| COc1cccc(OC)c1-n1c(NS(=O)(=O)[C@@H](C)[C@H](OC)c2ncc(C)cn2)nnc1-c1ccnc2ccccc12 [Example 417.0] | 6.29 |
| COc1cnc([C@H](C)[C@@H](C)S(=O)(=O)Nc2nnc(-c3ccn(C)n3)n2-c2c(OC)cccc2OC)nc1 [Example 457.0, (2R,3S)-N-(4-(2,6-dimethoxyphenyl)-5-(1-methyl-1H-pyrazol-3-yl)-4H-1,2,4-triazol-3-yl)-3-(5-methoxy-2-pyrimidinyl)-2-butanesulfonamide] | 7.60 |
| COc1cccc(OC)c1-n1c(NS(=O)(=O)[C@@H](C)[C@H](OC)c2ncc(C)cn2)nnc1-c1nn(C)c2ccccc12 [Example 436.0, (1R,2S)-N-(4-(2,6-dimethoxyphenyl)-5-(1-methyl-1H-indazol-3-yl)-4H-1,2,4-triazol-3-yl)-1-methoxy-1-(5-methylpyrimidin-2-yl)propane-2-sulfonamide] | 9.09 |
